Reference: US10351547B2, “Somatostatin modulators and uses thereof” (priority 2016, dated 2019)
Where two headings read alike, the source gives them in different places.

Molecular target: human SSTR2 (Homo sapiens (Human), UniProt P30874)
Test: Human SSTR2 intracellular cAMP functional assay for agonists (HTRF)
Format: cell-based
Summary of the method: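 Cells bearing human SSTR2 exposed to compound for 20 minutes at 37 °C; after lysis, cAMP measured by time-resolved fluorescence (HTRF) and converted via a standard curve. EC50 calculated from cAMP versus compound concentration.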

[1] = CHO-K1 cells stably expressing human SSTR2, NKH477-stimulated cAMP, read-out: EC50 (inhibition of cAMP activities via human SST2R)

Sequence of human SSTR2 (P30874 whole entry): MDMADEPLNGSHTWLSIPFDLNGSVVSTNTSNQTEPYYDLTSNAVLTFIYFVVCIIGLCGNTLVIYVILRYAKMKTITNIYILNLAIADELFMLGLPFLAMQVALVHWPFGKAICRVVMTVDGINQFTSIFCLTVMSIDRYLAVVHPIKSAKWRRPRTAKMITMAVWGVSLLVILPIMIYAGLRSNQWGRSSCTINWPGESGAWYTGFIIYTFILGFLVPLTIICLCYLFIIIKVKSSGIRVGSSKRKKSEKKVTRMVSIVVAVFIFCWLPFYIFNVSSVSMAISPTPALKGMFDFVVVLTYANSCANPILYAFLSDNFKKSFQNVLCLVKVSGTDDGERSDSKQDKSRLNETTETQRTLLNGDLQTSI

NC(=O)c1cccc(-c2ccc3ncc(-c4cc(F)cc(F)c4)c(N4CC[C@H]5NCCO[C@@H]5C4)c3c2)n1 [2-85, trans-6-[3-(3,5-difluorophenyl)-4-{octahydro-1H-pyrido[3,4-b]morpholin-6-yl}quinolin-6-yl]pyridine-2-carboxamide]
EC50 [1]: < 0.01 µM

CS(=O)(=O)Nc1c(F)cc(F)cc1-c1ccc2ncc(-c3cc(F)cc(F)c3)c(N3CCC(N)CC3)c2c1 [2-86, N-{2-[4-(4-aminopiperidin-1-yl)-3-(3,5-difluorophenyl)quinolin-6-yl]-4,6-difluorophenyl}methanesulfonamide]
EC50: 0.1 to 1 µM

COCCOCOc1c(C#N)cccc1-c1ccc2ncc(-c3cc(F)cc(F)c3)c(N3CCC(N)CC3)c2c1 [2-87, 3-[4-(4-aminopiperidin-1-yl)-3-(3,5-difluorophenyl)quinolin-6-yl]-2-[(2-methoxyethoxy)methoxy]benzonitrile]
EC50: 0.01 to 0.1 µM

Cc1cc(F)cc(-c2cnc3ccc(-c4cccc(C(=O)N5CCC5)c4O)cc3c2N2CCC(N)CC2)c1 [2-88, 2-[4-(4-aminopiperidin-1-yl)-3-(3-fluoro-5-methylphenyl)quinolin-6-yl] 6-(azetidine-1-carbonyl)phenol]
EC50: 0.01 to 0.1 µM

N#Cc1cc(F)c(F)c(-c2ccc3ncc(-c4cc(F)cc(F)c4)c(N4CCC(N)CC4)c3c2)c1O [2-99, 3-[4-(4-aminopiperidin-1-yl)-3-(3,5-difluorophenyl)quinolin-6-yl]-4,5-difluoro-2-hydroxybenzonitrile]
EC50 [1]: < 0.01 µM

CON=Cc1cccc(-c2ccc3ncc(-c4cc(C)cc(F)c4)c(N4CCC(N)CC4)c3c2)c1O [2-115, 2-[4-(4-aminopiperidin-1-yl)-3-(3-fluoro-5-methylphenyl)quinolin-6-yl]-6-[(methoxyimino)methyl]phenol]
EC50 [1]: < 0.01 µM

CON=Cc1cc(F)cc(-c2ccc3ncc(-c4cc(C)cc(F)c4)c(N4CCC(N)CC4)c3c2)c1O [2-116, 2-[4-(4-aminopiperidin-1-yl)-3-(3-fluoro-5-methylphenyl)quinolin-6-yl]-4-fluoro-6-[(methoxyimino)methyl]phenol]
EC50 [1]: < 0.01 µM

COC(=O)Nc1c(F)cc(F)c(F)c1-c1ccc2ncc(-c3cc(F)cc(F)c3)c(N3CCC(N)CC3)c2c1 [2-123, methyl N-{2-[4-(4-aminopiperidin-1-yl)-3-(3,5-difluorophenyl)quinolin-6-yl]-3,4,6-trifluorophenyl}carbamate]
EC50 [1]: < 0.01 µM

COC(=O)Nc1c(C#N)cncc1-c1ccc2ncc(-c3cc(F)cc(F)c3)c(N3CCC(N)CC3)c2c1 [2-125, methyl N-{3-[4-(4-aminopiperidin-1-yl)-3-(3,5-difluorophenyl)quinolin-6-yl]-5-cyanopyridin-4-yl}carbamate]
EC50 [1]: < 0.01 µM

NC1CCN(c2c(-c3cc(F)cc(F)c3)cnc3ccc(-c4cccc(F)c4C=NO)cc23)CC1 [2-126, 1-[3-(3,5-difluorophenyl)-6-{3-fluoro-2-[(hydroxyimino)methyl]phenyl}quinolin-4-yl]piperidin-4-amine]
EC50 [1]: < 0.01 µM

CON=Cc1c(F)cccc1-c1ccc2ncc(-c3cc(F)cc(F)c3)c(N3CCC(N)CC3)c2c1 [2-129, 1-[3-(3,5-difluorophenyl)-6-{3-fluoro-2-[(methoxyimino)methyl]phenyl}quinolin-4-yl]piperidin-4-amine]
EC50: 0.01 to 0.1 µM

NC1CCN(c2c(-c3cc(F)cc(F)c3)cnc3ccc(-c4cccc(C(N)C(F)(F)F)c4)cc23)CC1 (centres unmarked) [2-132, 1-{6-[3-(1-amino-2,2,2-trifluoroethyl)phenyl]-3-(3,5-difluorophenyl)quinolin-4-yl}piperidin-4-amine]
EC50: 0.01 to 0.1 µM

NC1CCN(c2c(-c3cc(F)cc(F)c3)cnc3ccc(-c4c(O)c(Cl)cc(F)c4F)cc23)CC1 [2-134, 2-[4-(4-aminopiperidin-1-yl)-3-(3,5-difluorophenyl)quinolin-6-yl]-6-chloro-3,4-difluorophenol]
EC50 [1]: < 0.01 µM

CONC(=O)Nc1c(F)cc(F)cc1-c1ccc2ncc(-c3cc(F)cc(F)c3)c(N3CCC(N)CC3)c2c1 [2-139, 1-{2-[4-(4-aminopiperidin-1-yl)-3-(3,5-difluorophenyl)quinolin-6-yl]-4,6-difluorophenyl}-3-methoxyurea]
EC50 [1]: < 0.01 µM
